Reference: patent US11958857B1, “5-(1H-indol-3-yl)-1,3-substitutedpyrimido[4,5-d]pyrimidine-2,4,7(1H,3H,8H)-trione as anticancer agents” (KING FAISAL UNIVERSITY, priority 2023, dated 2024)

How the values were obtained:
[1] = system: A2780 cells (ovarian cancer); assay: single dose MTT assay, A2780; type: cell-based; conditions: 10 μM, 48 h, Mean ± SEM of three independent experiments
From the text: (§1) All of the target compounds 5-(1H-indol-3-yl)-1,3-substituted pyrimido[4,5-d]pyrimidine-2,4,7(1H,3H,8H)-trione derivatives (4a-c) were subjected to a single dose MTT (3-(4,5-dimethylthiazol-2-yl)-2,5-diphenyltetrazolium bromide) assay to evaluate their cytotoxicity (growth-inhibiting activities) against the breast cancer (MCF-7, MDA-MB-231), ovarian cancer (A2780, SKOV-3) and cervical cancer (HELA) cell lines. Cell lines were obtained from ATCC (American Type Culture Collection). Doxorubicin was used as a positive control.
(§2) HELA and MCF-7 cells were seeded at 10000 cells/well, while MDA-MB-231, A2780, and SKOV-3 cells were seeded at 20000 cells/well in 96 well plates to ensure that cells were non-confluent and able to proliferate over the course of the assay period. After 24 h in culture, cells were treated with test compounds 5-(1H-indol-3-yl)-1,3-substituted pyrimido[4,5-d]pyrimidine-2,4,7(1H,3H,8H)-trione derivatives (4a-c) at a single dose of 10 μM concentration and incubated for 48 h. Cells were inspected under the microscope to detect any visible morphological changes. Cells were washed with PBS, and then the cells were treated with 100 μl of 1 mg/ml fresh filtered MTT suspended in a culture medium; the plates were covered with aluminum foil and incubated for 45 min. Cell viability was marked by the conversion of MTT to the dark-blue-colored formazan by mitochondrial dehydrogenases. DMSO was added to dissolve the insoluble purple formazan product, and optical density (OD) was measured by using a spectrophotometer at a wavelength of […]. The assay was performed in the dark as MTT is light-sensitive. Control wells of culture medium only (without cells) were included as blanks for absorbance measurements.
(§3) Cell viability was calculated according to the following formula: % Cell viability=(OD sample-OD blank/OD control-OD blank)×100 where the blank is given by wells without cells (medium only), control is untreated cells (100% viable).

[2] = system: HeLa cells (cervical cancer); assay: single dose MTT assay, HeLa; type: cell-based; conditions: 10 μM, 48 h, Mean ± SEM of three independent experiments
From the text: as §1, §2, §3

[3] = system: MCF7 cells (breast cancer); assay: single dose MTT assay, MCF7; type: cell-based; conditions: 10 μM, 48 h, Mean ± SEM of three independent experiments
From the text: as §1, §2, §3

[4] = system: MDA-MB-231 cells (breast cancer); assay: single dose MTT assay, MDA-MB-231; type: cell-based; conditions: 10 μM, 48 h, Mean ± SEM of three independent experiments
From the text: as §1, §2, §3

[5] = system: SKOV3 cells (ovarian cancer); assay: single dose MTT assay, SKOV3; type: cell-based; conditions: 10 μM, 48 h, Mean ± SEM of three independent experiments
From the text: as §1, §2, §3

| SMILES | Anticancer effect on cancer cell lines A2780 (proliferation percentage) [1] | Anticancer effect on cancer cell lines HeLa (proliferation percentage) [2] | Anticancer effect on cancer cell lines MCF7 (proliferation percentage) [3] | Anticancer effect on cancer cell lines MDA-MB-231 (proliferation percentage) [4] | Anticancer effect on cancer cell lines SKOV3 (proliferation percentage) [5] | melting point [°C] |
| --- | --- | --- | --- | --- | --- | --- |
| O=c1nc(-c2c[nH]c3ccccc23)c2c(=O)[nH]c(=O)[nH]c2[nH]1 [Compound 4a, 5-(1H-Indol-3-Yl)Pyrimido[4,5-d]Pyrimidine-2,4,7(1H,3H,8H)-Trione] | 78 ± 3.60 | 57 ± 6.13 | 98 ± 3.15 | 82 ± 1.01 | 79 ± 0.92 | 160 to 162 |
| O=c1nc(-c2c[nH]c3ccccc23)c2c(=O)[nH]c(=S)[nH]c2[nH]1 [Compound 4b, 4-(1H-Indol-3-Yl)-7-Thioxo-7,8-Dihydropyrimido[4,5-d]Pyrimidine-2,5(1H,6H)-Dione] | 82 ± 4.05 | 59 ± 2.91 | 68 ± 4.57 | 61 ± 6.00 | 69 ± 1.31 | 180 to 182 |
| Cn1c(=O)c2c(-c3c[nH]c4ccccc34)nc(=O)[nH]c2n(C)c1=O [Compound 4c, 5-(1H-Indol-3-Yl)-1,3-Dimethylpyrimido[4,5-d]Pyrimidine-2,4,7(1H,3H,8H)-Trione] | 63 ± 1.47 | 19 ± 1.58 | 44 ± 3.90 | 62 ± 1.35 | 57 ± 3.40 | 256 to 258 |
